# Experimental data as given in patent US9056133B2, “Pharmaceutical kit and method for treating cancer” (priority 2012, dated 2015).
# Tests used:
# [1] = tested on: SW1990 pancreatic tumoral cell line; experiment: Combined effect of AV25CDC 5/3 and gemcitabine, MTT cell viability; format: cell-based, human; conditions: alone or 24 h after virus at MOI 0.1, MTT six days later
# Method: FIG. 8. In vitro synergic effect of AV25CDC 5/3 and gemcitabine in pancreatic tumoral cell line SW1990. Cells were infected with AV25CDC 5/3, at a MOI of 0.1 and 24 hours later gemcitabine was added at concentrations of 0.01 uM and 0.1 uM. Six days later, cell viability was measured using MTT assay.
# Pancreatic tumoral cell lines (SW1990) were plated and infected with AV25CDC 5/3, at a MOI of 0.1 and 24 hours later, gemcitabine was added in concentrations of 0.01 uM and 0.1 uM. Six days later, cell viability was measured using MTT assay. There was no decrease on viability if only AV25CDC 5/3 is used at a MOI of 0.1, as well as no decrease was found adding gemcitabine at 0.01 uM. Nevertheless, the combination of both produced a decrease in cell viability of 20%. Using a higher concentration of gemcitabine, of 0.1 uM, on its own produced a decrease in viability of 20%, but combined with AV25CDC 5/3 at a MOI of 0.1, the viability decrease of 40%, considering the control (FIG. 8).
# [2] = Biochemical profile and Ca 19.9 tumoral marker of treated animals at day 40; format: in vivo, athymic mice N:NIH(S)-nu
# Method: Also, to evaluate efficacy of AV25CDC 5/3, on orthotopic tumors caused by SW1990 cells, E4 expression was evaluated at day 40, where an average of […] viral particles were found in the tumor indicating an active replication. On the other hand, biochemical parameters were evaluated at day 40, determining amylase, total and direct bilirubin, alkaline phosphatase (ALP) and aspartate aminotransferase (AST).
# Tumoral marker levels Ca 19.9 were also determined.
smiles,measurement,setting,value
Nc1ccn([C@@H]2O[C@H](CO)[C@@H](O)C2(F)F)c(=O)n1 [gemcitabine],cytotoxicity at 0.1 µM,"[1]; Homo sapiens, gemcitabine 0.1 uM, vs control, read-out: decrease in cell viability",20%
same,decrease in cell viability,[1]; gemcitabine 0.01 uM,no decrease
same,ALP,"[2]; average ± SD, day 40",119.3 ± 25 U/L
same,Amylase,"[2]; average ± SD, day 40",1151 ± 386 U/L
same,Direct bilirubin,"[2]; average ± SD, day 40",0.14 ± 0.02 mg/dL
same,GOT (AST),"[2]; average ± SD, day 40",280 ± 64 U/L
same,GPT (ALT),"[2]; average ± SD, day 40",47 ± 17 U/L
same,Total Bilirubin,"[2]; average ± SD, day 40",0.78 ± 0.05 mg/dL
same,Ca 19.9,"[2]; tumoral marker, individual samples, day 40 after injection of virus",27940 U/ml
